Data on six molecules can be found in patent publication US20240148821A1, “PHARMACEUTICAL USE OF CYCLIC PEPTIDE COMPOUND” (CHUGAI SEIYAKU KABUSHIKI KAISHA, priority 2021, published 2024).

Numbered stars: 1 amine (or outer) side, 2 acyl side, 3 side chain; on linkers, the order of the positions; unused ones are H or OH. Bridge positions count the residues as written; N and C are the ends. Square brackets hold non-standard residues; d marks the D form. Peptide text beside a SMILES is read from it. * marks the point of attachment. hPhe(3-Cl-4-CF3) = N[C@@H](CCc1ccc(C(F)(F)F)c(Cl)c1)C(=O)O; 3Oxa8azabicyclo(3.2.1)octane = C1CC2COCC1N2*; NMedβ3hAla = C[C@H](CC(=O)[*:2])N(C)[*:1]; NMeGly(cPent) = CN[C@H](C(=O)O)C1CCCC1; NMeCha = CN[C@@H](CC1CCCCC1)C(=O)O; Hyp = O=C(O)[C@@H]1C[C@@H](O)CN1; NMeAhp(2) = CCCCC[C@H](NC)C(=O)O; NMeChg = CN[C@H](C(=O)O)C1CCCCC1; X138 = NCCOCCN(CC(=O)[*:2])[*:1]; NMeD = CN[C@@H](CC(=O)O)C(=O)O; NMeL = CN[C@@H](CC(C)C)C(=O)O; dNMeAbu = CC[C@@H](NC)C(=O)O; NMeNva = CCC[C@H](NC)C(=O)O; Azetidin(1-yl) = C1CN(*)C1; NMeS = CN[C@@H](CO)C(=O)O; NMeA = CN[C@@H](C)C(=O)O; Piperidide = C1CCN(*)CC1; Ac5c = NC1(C(=O)O)CCCC1; Aze = O=C(O)[C@@H]1CCN1; NEtG = CCNCC(=O)O; Sar = CNCC(=O)O; Propyl = CCC*

As a reminder, the IC50 is the point on the concentration scale where inhibition reaches its midpoint.

The target in the assay is protein-protein interaction between Kras and SOS1 (biotin-tagged human Kras loaded with GDP, His-tagged human SOS1) (Homo sapiens (Human), UniProt P01116, G12D). Nature of the assay: Protein-protein interaction inhibition between Kras and SOS1 (KrasG12D-SOS PPI) using AlphaScreen.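 Also: kras produced in E. coli, Ni-coupled donor beads and streptavidin acceptor beads, excitation 680 nm with emission detected at 520–620 nm via singlet oxygen transfer.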 It is filed as biochemical. The settings on record: AlphaScreen; biotin-tagged human Kras loaded with GDP, His-tagged human SOS1; read-out: KRAS G12D-SOS PPI IC50. (Bead proximity is the source of the signal in Alpha formats.)
`CCO[C@@H]1C[C@H]2C(=O)NC3(CCCC3)C(=O)N(C)[C@@H](C3CCCC3)C(=O)N(C)[C@H](C)CC(=O)N(C)[C@@H](CC(C)C)C(=O)N[C@@H]([C@@H](C)CC)C(=O)N(C)CC(=O)N(C)CC(=O)N(C)[C@@H](CC3CCCCC3)C(=O)N(C)CC(=O)N[C@@H](CCc3ccc(C(F)(F)F)c(Cl)c3)C(=O)N2C1` [Compound 510] (cyclo([Ac5c][NMeGly(cPent)][NMedβ3hAla][NMeL]I[Sar][Sar][NMeCha][Sar][hPhe(3-Cl-4-CF3)][Hyp](Et))): the IC50 amounted to 4 nM.

With `CCC[C@H]1C(=O)NC2(CCCC2)C(=O)N(C)[C@@H](C2CCCCC2)C(=O)N(C)[C@H](C(=O)N2CCCCC2)CC(=O)N(C)[C@@H](CC(C)C)C(=O)N[C@@H]([C@@H](C)CC)C(=O)N(C)CC(=O)N(C)CC(=O)N(C)[C@@H](CC2CCCCC2)C(=O)N(C)CC(=O)N[C@@H](CCc2ccc(C(F)(F)F)c(Cl)c2)C(=O)N1C` [Compound 1005] ([NMeL]I[Sar][Sar][NMeCha][Sar][hPhe(3-Cl-4-CF3)][NMeNva][Ac5c][NMeChg][NMeD]-Piperidide; lactam N-11), the IC50 came out at 3.5 nM.

For the molecule `CC[C@H](C)[C@@H]1NC(=O)[C@H](CC(C)C)N(C)C(=O)C[C@@H](C(=O)N2CCC2)N(C)C(=O)[C@H](C2CCCC2)N(C)C(=O)C2(CCCC2)NC(=O)[C@@H]2CCCN2C(=O)[C@H](CCc2ccc(C(F)(F)F)c(Cl)c2)NC(=O)CN(CC)C(=O)[C@H](CC2CCCCC2)N(C)C(=O)[C@@H]2CCN2C(=O)[C@H](C)N(C)C1=O` [Compound 726] ([NMeL]I[NMeA][Aze][NMeCha][NEtG][hPhe(3-Cl-4-CF3)]P[Ac5c][NMeGly(cPent)][NMeD]-{Azetidin(1-yl)}; lactam N-11), the IC50 worked out at 1.3 nM.

On to `CC[C@H](C)[C@@H]1NC(=O)[C@H](CC(C)C)N(C)C(=O)C[C@@H](C(=O)N2CCCCC2)N(C)C(=O)[C@H](C2CCCCC2)N(C)C(=O)C2(CCCC2)NC(=O)CN(CCOCCN)C(=O)[C@H](CCc2ccc(C(F)(F)F)c(Cl)c2)NC(=O)CN(C)C(=O)[C@H](CC2CCCCC2)N(C)C(=O)CN(C)C(=O)CN(C)C1=O` [Compound 2185, (11S,17S,26S,29S,33S,36S)-9-[2-(2-aminoethoxy)ethyl]-11-[2-[3-chloro-4-(trifluoromethyl)phenyl]ethyl]-36-cyclohexyl-17-(cyclohexylmethyl)-29-isobutyl-15,18,21,24,30,34,37-heptamethyl-26-[(1S)-1-methylpropyl]-33-(piperidine-1-carbonyl)-6,9,12,15,18,21,24,27,30,34,37-undecazaspiro[4.33]octatriacontane-7,10,13,16,19,22,25,28,31,35,38-undecone] ([NMeL]I[Sar][Sar][NMeCha][Sar][hPhe(3-Cl-4-CF3)][X138][Ac5c][NMeChg][NMeD]-Piperidide; lactam N-11), for which the IC50 is 2.4 nM.

As for `CCCCC[C@H]1C(=O)N[C@@H]([C@@H](C)CC)C(=O)N(C)[C@@H](C)C(=O)N2CC[C@H]2C(=O)N(C)[C@@H](COCCC)C(=O)N(C)CC(=O)N[C@@H](CCc2ccc(C(F)(F)F)c(Cl)c2)C(=O)N2CCC[C@H]2C(=O)NC2(CCCC2)C(=O)N(C)[C@@H](C2CCCC2)C(=O)N(C)[C@H](C(=O)N2C3CCC2COC3)CC(=O)N1C` [Compound 622] ([NMeAhp(2)]I[NMeA][Aze][NMeS](Propyl)[Sar][hPhe(3-Cl-4-CF3)]P[Ac5c][NMeGly(cPent)][NMeD]-{3Oxa8azabicyclo(3.2.1)octane}; lactam N-11), the IC50 turned out to be 1.7 nM.

With `CC[C@@H]1C(=O)NC2(CCCC2)C(=O)N(C)[C@@H](C2CCCC2)C(=O)N(C)[C@H](C(=O)N2CCCCC2)CC(=O)N(C)[C@@H](CC(C)C)C(=O)N[C@@H]([C@@H](C)CC)C(=O)N(C)CC(=O)N(C)CC(=O)N(C)[C@@H](CC2CCCCC2)C(=O)N(C)CC(=O)N[C@@H](CCc2ccc(C(F)(F)F)c(Cl)c2)C(=O)N1C` [Compound 1439] ([NMeL]I[Sar][Sar][NMeCha][Sar][hPhe(3-Cl-4-CF3)][dNMeAbu][Ac5c][NMeGly(cPent)][NMeD]-Piperidide; lactam N-11), the IC50 came out at 3.7 nM.
